Where a name gives a salt, the structure may show the parent alone.
Assays:
NO production [1] = test: NO inhibition assay, LPS-stimulated RAW 264.7 cells; format: cell-based, Mus musculus; conditions: RAW 264.7, + LPS 100 μg mL^−1, 72 h
Description: (§1) The IC-21 (Mus musculus macrophage cells, TIB-186) and RAW 264.7 (Mus musculus macrophage cells, TIB-71) cell lines used in this study were obtained from the American Type Culture Collection (ATCC, Manassas, VA, USA). The selection of IC-21 and RAW 264.7 cell lines for studies on inflammation and antioxidant activity is based on two main reasons: the cell type and their origin. Firstly, both IC-21 and RAW 264.7 cell lines are macrophages, which play a crucial role in the immune system, being essential for the inflammatory response and regulation of oxidative stress. These cells have the capacity to produce pro-inflammatory cytokines, express transcription factors such as NF-κB, and generate NO, making them ideal models to understand inflammatory mechanisms. Moreover, macrophages are involved in the activation of Nrf2, a transcription factor critical for the antioxidant response, allowing these cell lines to enable a comprehensive assessment of antioxidant activity within an inflammatory context.
(§2) Stock solutions of the samples (extracts and compounds) were prepared at a concentration of 1 mM using dimethyl sulfoxide (DMSO ≥ 99.9% Sigma-Aldrich, CAS No. 67-68-5, St. Louis, MO, USA) as the solvent. Dilutions from these stock solutions were then made to achieve concentrations between 100 and 0.20 μg mL^−1 or μM in the culture medium, which contained 0.5% DMSO. A control group consisting only of the culture medium with 0.5% DMSO was also included to determine its potential cytotoxicity.
(§3) The 50% cytotoxic concentration (CC50), 50% inhibitory concentration (IC50), and half-maximal effective concentration (EC50) values were calculated using the sigmoidal dose–response function. All experiments were conducted in triplicate, and the data obtained were expressed as the mean and standard deviation. A two-way analysis of variance (ANOVA) combined with Dunnett’s multiple comparisons test (p < 0.001) was performed for the cytotoxicity, NF-κB inhibition, NO inhibition and Nrf2 activation assays, while a one-way ordinary ANOVA combined with Dunnett’s multiple comparisons test (p < 0.001) was conducted for the SOD assay. All statistical analyses were performed using GraphPad Prism version 10.0.0 (La Jolla, CA, USA, www.graphpad.com, accessed on 28 August 2024).
(§4) To determine the anti-inflammatory activity of the samples (at the same concentration as in the viability assay), the […] was used, implementing the protocol adapted from Guo et al.. Cells were cultured in 96-well plates (1 × 10^4 cells per well). […] Absorbance was measured at 540 nm using a microplate reader.

NO production [2] = test: NO inhibition assay, value not assigned to one cell line; format: cell-based; conditions: Mus musculus
Description: as §4

NO production [3] = test: NO inhibition assay, LPS-stimulated IC-21 cells; format: cell-based, Mus musculus; conditions: IC-21, + LPS 100 μg mL^−1, 72 h
Description: as §1, §2, §3, §4

Nrf2 [4] = test: Nrf2 activation assay, IC-21 cells; format: cell-based; conditions: Mus musculus, 72 h, IC-21, 72 h, read-out: Activation of Nrf2 production EC50
Description: as §1, §2, §3
(§5) To determine the antioxidant response of the samples (at the same concentration as in the viability assay), the Nrf2 activation assay was used following the protocol carried out by Apaza Ticona et al.. Cells were cultured in 96-well plates (1 × 10^4 cells per well). […] Absorbance was measured at 540 nm using a microplate reader.

[5] = target: Superoxide Dismutase (SOD); test: SOD activation assay (kit); format: biochemical; conditions: 72 h; for EC50: compounds series
Description: as §3
To determine the antioxidant response of the samples (at the same concentration as in the viability assay), the SOD activation assay kit (Sigma-Aldrich, CAS No. MAK528, St. Louis, MO, USA) was used, implementing the protocol adapted from Vincent et al.. […] Absorbance was measured at 450 nm using a microplate reader.

[6] = NR (neutral red) viability assay, RAW 264.7 cells; format: cell-based, Mus musculus; conditions: mouse, RAW 264.7 macrophage cells, RAW 264.7, 72 h, compounds series
Description: as §1
(§6) Cultivated in a Roswell Park Memorial Institute (RPMI) 1640 medium (RPMI 1640 Sigma-Aldrich, CAS No. R7755, St. Louis, MO, USA) supplemented with 2 mM L-glutamine (≥99% Sigma-Aldrich, CAS No. 56-85-9, St. Louis, MO, USA), 10% foetal bovine serum (FBS Sigma-Aldrich, CAS No. TMS-016, St. Louis, MO, USA), and 10,000 units of penicillin and 10 mg streptomycin mL^−1 (Sigma-Aldrich, CAS No. P4333, St. Louis, MO, USA) in culture flasks, the cells were maintained in an incubator under normoxic conditions (20–21% O2) and a humidified atmosphere (5% CO2, at 37 °C).
as §2, §3
(§7) Cell viability was evaluated using a colorimetric assay in 96-well plates, employing 3-amino-7-dimethylamino-2-methylphenazine hydrochloride salt reagent (NR, Sigma-Aldrich, CAS No. 553-24-2, St. Louis, MO, USA). ACTD (≥95% Sigma-Aldrich, CAS No. 50-76-0, St. Louis, MO, USA) was used as a positive control, with a CC50 value of 0.01 μg mL^−1 for the extracts, or 0.008 μM for the compounds. The IC-21 and RAW 264.7 cell lines were cultured in 96-well plates at 37 °C with 5% CO2 until >90% confluency was achieved (1 × 10^4 cells per well). Subsequently, the cultures were treated with sample dilutions (100–0.20 μg mL^−1 or μM) for 72 h at 37 °C with 5% CO2 in phenol red-free RPMI. The supernatant was then discarded, and the cells were washed with phosphate-buffered saline (PBS) before being incubated with […] NR (50 μg mL^−1; 173 μM) for 3 h at 37 °C with 5% CO2. NR labelling was performed after DMSO treatment. […]

RAW 264.7 cell line = test: NR (neutral red) viability assay, RAW 264.7 cells; format: cell-based, Mus musculus; conditions: RAW 264.7, 72 h, compounds series
Description: as §1, §6, §2, §3, §7

Nrf2 [7] = test: Nrf2 activation assay, RAW 264.7 cells; format: cell-based, Mus musculus; conditions: RAW 264.7, 72 h, read-out: Activation of Nrf2 production EC50
Description: as §1, §2, §3, §5

IC-21 cell line = test: NR (neutral red) viability assay, IC-21 cells; format: cell-based, Mus musculus; conditions: IC-21, 72 h, compounds series
Description: as §1, §6, §2, §3, §7

[8] = NR (neutral red) viability assay, IC-21 cells; format: cell-based, Mus musculus; conditions: mouse, IC-21 macrophage cells, IC-21, 72 h, compounds series
Description: as §1, §6, §2, §3, §7

NF-κB [9] = test: NF-κB inhibition assay, LPS-stimulated RAW 264.7 cells; format: cell-based, Mus musculus; conditions: RAW 264.7, + LPS 100 μg mL^−1, 72 h; for IC50: compounds series, read-out: Inhibition of NF-κB production IC50
Description: as §1, §2, §3
(§8) To assess the anti-inflammatory potential of the samples at the same concentrations used in the cell viability assay, an NF-κB inhibition assay was used following the approach established by Apaza Ticona et al.. Cells were seeded in 96-well plates at a density of 3 × 10^3 cells per well. […] Absorbance was quantified at 450 nm using a microplate reader.

NF-κB [10] = test: NF-κB inhibition assay, LPS-stimulated IC-21 cells; format: cell-based, Mus musculus; conditions: IC-21, + LPS 100 μg mL^−1, 72 h; for IC50: compounds series, read-out: Inhibition of NF-κB production IC50
Description: as §1, §2, §3, §8

Nrf2 [11] = test: Nrf2 activation assay, value not assigned to one cell line; format: cell-based, Mus musculus
Description: as §5

NF-κB [12] = test: NF-κB inhibition assay, value not assigned to one cell line; format: cell-based; conditions: Mus musculus
Description: as §8

[13] = Mus musculus, RAW264.7, 72 h, compounds series
[14] = Mus musculus, RAW264.7, 72 h, extracts series
[15] = RAW264.7, across IC-21 and RAW 264.7 / cell line not given, compounds series
[16] = Mus musculus, 72 h, compounds series
[17] = Mus musculus, RAW264.7, across IC-21 and RAW 264.7 / cell line not stated, compounds series

Molecule	IC50 (NO production [1]; [13])	IC50 (NO production [3]; [16])	EC50 (Nrf2 [4]; compounds series)	EC50 [5]	CC50 at 72 h [6]	CC50 (RAW 264.7 cell line)	EC50 (Nrf2 [7]; [13])	CC50 at 72 h [8]	IC50 (NF-κB [9]; Mus musculus, RAW264.7, 72 h)	IC50 (NF-κB [10]; Mus musculus, 72 h)	further results
[H]/N=C(/NC)NCCC[C@H](N)C(=O)O [LNMMA, N^G-methyl-L-arginine acetate salt]	6.83 µM	6.43 µM									IC50 (NO production [1]; [14]): 1.64 µg/mL; IC50 (NO production [2]; [15]): 6.63 µM; IC50 (NO production [2]; cell line not stated, extracts series): 1.61 µg/mL; IC50 (NO production [3]; Mus musculus, 72 h, extracts series): 1.57 µg/mL
C[C@H]1[C@H](C)CC[C@]2(C(=O)O)CC[C@]3(C)C(=CC(=O)[C@@H]4[C@@]5(C)CC[C@H](O)C(C)(C)[C@@H]5CC[C@]43C)[C@H]12 [compound 3, (3β)-3-hydroxy-11-oxours-12-en-28-oic acid]	24.8 µM	16.6 µM	1030 nM	13.2 µM	92.4 µM	92.4 µM	1.14 µM	88.5 µM	27.1 µM	21 µM	CC50 (IC-21 cell line): 88.5 µM
COC(=O)[C@]12CCC(C)(C)C[C@H]1[C@H]1C(=O)C=C3[C@@]4(C)C=C(C#N)C(=O)C(C)(C)[C@@H]4CC[C@@]3(C)[C@]1(C)CC2 [CDDO-Me, bardoxolone methyl, reference compound]			0.09 nM				0.00013 µM				EC50 (Nrf2 [4]; extracts series): 0.05 ng/mL; EC50 (Nrf2 [7]; [14]): 0.08 ng/mL; EC50 (Nrf2 [11]; [17]): 0.09 to 0.13 nM; EC50 (Nrf2 [11]; Mus musculus, cell line not stated, extracts series): 0.07 ng/mL; EC50 (Nrf2 [11]; across IC-21 and RAW 264.7 / cell line not given, compounds series): 0.11 nM
O=C(O)c1cc(O)c(O)c(O)c1 [GA, gallic acid, reference compound]				12.1 µM							SOD activation EC50 ([5]; extracts series): 2.06 µg/mL
CC(=O)O[C@H]1CC[C@]2(C)[C@H]3C(=O)C=C4[C@@H]5[C@@H](C)[C@H](C)CC[C@]5(C(=O)O)CC[C@@]4(C)[C@]3(C)CC[C@H]2C1(C)C [compound 2, (3β)-3-acetyloxy-11-oxours-12-en-28-oic acid]	15.5 µM	11.3 µM	524 nM	7.43 µM	84.9 µM	84.9 µM	0.772 µM	78.5 µM	20 µM	13.4 µM	
lipopolysaccharide [LPS, reference compound]											IC50 (NO production [1]; compounds series): 98.3 µM; Inhibition of NO production IC50 (NO production [1]; extracts series): 97.2 µg/mL; IC50 (NO production [3]; compounds series): 97 µM; Inhibition of NO production IC50 (NO production [3]; extracts series): 95.2 µg/mL; IC50 (NF-κB [9]): 99.2 µM; Inhibition of NF-κB production IC50 (NF-κB [9]; extracts series): 98.7 µg/mL; IC50 (NF-κB [10]): 95.8 µM; Inhibition of NF-κB production IC50 (NF-κB [10]; extracts series): 97.5 µg/mL
C[C@H]1[C@H](C)CC[C@]2(C(=O)O)CC[C@]3(C)C(=CC(=O)[C@@H]4[C@@]5(C)CCC(=O)C(C)(C)[C@@H]5CC[C@]43C)[C@H]12 [compound 1, 3,11-dioxours-12-en-28-oic acid]	6.59 µM	4.75 µM	243 nM	1.87 µM	75.4 µM	75.4 µM	0.548 µM	67.6 µM	8.11 µM	7.39 µM	IC50 (NO production [2]; [15]): 4.75 to 6.59 µM; IC50 (NF-κB [12]; RAW264.7, across IC-21 and RAW 264.7 / cell line not given, compounds series, read-out: NF-κB inhibition IC50): 7.39 to 8.11 µM; EC50 (Nrf2 [7]; compounds series): 0.548 µM; EC50 (Nrf2 [11]; [17]): 243 to 548 nM; CC50 (IC-21 cell line): 67.6 µM
CC1=C(O)C(=O)C=C2C1=CC=C1[C@@]2(C)CC[C@@]2(C)[C@@H]3C[C@](C)(C(=O)O)CC[C@]3(C)CC[C@]12C [CEL, celastrol]											IC50 (NF-κB [12]; RAW264.7, read-out: NF-κB inhibition IC50): 7.41 µM; IC50 (NF-κB [12]; read-out: NF-κB inhibition IC50): 3.34 µg/mL

Reference: paper PMC11395096, “Study of Pentacyclic Triterpenes from Lyophilised Aguaje: Anti-Inflammatory and Antioxidant Properties” (International Journal of Molecular Sciences, 2024)
